The source of these data is PubChem BioAssay AID330 (DTP/NCI, 2004).

This assay relates to P388 leukemia ip, CD2F1 mice, survival T/C. In words: NCI In Vivo Anticancer Drug Screen. Data for tumor model P388 Leukemia (intraperitoneal) in CD2F1 (CDF1) mice. The note with it: endpoint: median survival time, higher = longer survival. In outline:
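Mice carrying the transplanted tumor received test compound or vehicle. Survival was recorded in each group, and the value is the treated-group measurement divided by that of the vehicle-treated control group.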

Where [1] appears, read: dose: 100.0 mg/kg/injection, schedule: Q01DX009 (ip), vehicle: saline with Tween-80.
The mark [2] stands for this setting: dose: 200.0 mg/kg/injection, schedule: Q01DX009 (ip), vehicle: saline with Tween-80.
[3] abbreviates: dose: 400.0 mg/kg/injection, schedule: Q01DX009 (ip), vehicle: saline with Tween-80.
[4] abbreviates: dose: 12.5 mg/kg/injection, schedule: Q01DX009 (ip), vehicle: saline.
[5] abbreviates: dose: 25.0 mg/kg/injection, schedule: Q01DX009 (ip), vehicle: saline.
[6] abbreviates: dose: 50.0 mg/kg/injection, schedule: Q01DX009 (ip), vehicle: saline.
[7] abbreviates: dose: 50.0 mg/kg/injection, schedule: Q01DX005 (ip), vehicle: saline with Tween-80.
Setting [8] is: dose: 100.0 mg/kg/injection, schedule: Q01DX005 (ip), vehicle: saline with Tween-80.
Where [9] appears, read: dose: 200.0 mg/kg/injection, schedule: Q01DX005 (ip), vehicle: saline with Tween-80.
Setting [10] is: dose: 60.0 mg/kg/injection, schedule: Q01DX005 (ip), vehicle: saline with Tween-80.
[11] abbreviates: dose: 120.0 mg/kg/injection, schedule: Q01DX005 (ip), vehicle: saline with Tween-80.
Setting [12] is: dose: 240.0 mg/kg/injection, schedule: Q01DX005 (ip), vehicle: saline with Tween-80.

The structures appear in SMILES notation. Where “and” joins values, the source holds several entries; their conditions need not be identical. Identical values can stand only once. Inconclusive results and toxic doses are left out.

As for `COC(=O)C(Cl)c1ccccc1` (stereo not drawn), the T/C under setting [1] was 104 % of control, the T/C under setting [2] was 113 % of control and the T/C under setting [3] is 100 % of control.
For `S=c1nn[nH]c2[nH]ncc12`, the T/C was 94 % of control (dose: 100.0 mg/kg/injection, schedule: Q01DX001 (ip), vehicle: saline with Tween-80); 102 % of control (dose: 200.0 mg/kg/injection, schedule: Q01DX001 (ip), vehicle: saline with Tween-80); 108 % of control (dose: 400.0 mg/kg/injection, schedule: Q01DX001 (ip), vehicle: saline with Tween-80).
Regarding `O=[As](O)(O)c1ccc(Nc2nc(Cl)nc(Cl)n2)cc1`, the T/C by setting is: (dose: 12.5 mg/kg/injection, schedule: Q01DX009 (ip), vehicle: Klucel (hydroxypropylcellulose) (HPC)) 96 % of control; (dose: 25.0 mg/kg/injection, schedule: Q01DX009 (ip), vehicle: Klucel (hydroxypropylcellulose) (HPC)) 104 % of control.
For the compound `[Cl][Rh][Cl].[NH-]c1nc(-c2ccccc2)cs1.[NH-]c1nc(-c2ccccc2)cs1.[NH-]c1nc(-c2ccccc2)cs1.[NH-]c1nc(-c2ccccc2)cs1`, the T/C was 97 % of control (dose: 100.0 mg/kg/injection, schedule: Q01DX001 (ip), vehicle: DMSO); 94 % of control (dose: 200.0 mg/kg/injection, schedule: Q01DX001 (ip), vehicle: DMSO); 98 % of control (dose: 400.0 mg/kg/injection, schedule: Q01DX001 (ip), vehicle: DMSO).
Turning to `COc1cccc2c1[C@H]1CO[C@H]3C4C[C@H](C(=O)O)C([C@@H](C2)N13)N4C` (stereo partly drawn), the T/C (dose: 0.31 mg/kg/injection, schedule: Q01DX005 (ip), vehicle: water) is 112 % of control; the T/C (dose: 0.62 mg/kg/injection, schedule: Q01DX005 (ip), vehicle: water) is 113 % of control and 121 % of control; the T/C (dose: 1.25 mg/kg/injection, schedule: Q01DX005 (ip), vehicle: water) is 116 % of control; the T/C (dose: 10.0 mg/kg/injection, schedule: Q01DX005 (ip), vehicle: water) is 165 % of control and 195 % of control and 247 % of control; the T/C (dose: 20.0 mg/kg/injection, schedule: Q01DX005 (ip), vehicle: water) was 247 % of control.
With `O=C(OCC(Cl)(Cl)Cl)N1C2C=CC(C3OC32)N1C(=O)OCC(Cl)(Cl)Cl` (stereo not drawn), the T/C reads like this: (dose: 50.0 mg/kg/injection, schedule: Q01DX009 (ip), vehicle: suspension in saline) 88 % of control; (dose: 100.0 mg/kg/injection, schedule: Q01DX009 (ip), vehicle: suspension in saline) 90 % of control; (dose: 200.0 mg/kg/injection, schedule: Q01DX009 (ip), vehicle: suspension in saline) 98 % of control.
As to `CCCCCCCCCc1cc(CN2CCCCC2)c(O)c(CN2CCCCC2)c1`, the T/C under setting [4] was 112 % of control, the T/C under setting [5] was 108 % of control and the T/C under setting [6] was 102 % of control.
Consider `CCOc1ccc2c(c1)[n+](=O)c1ccc(Cl)cc1n2[O-]`, for which the T/C is 104 % of control and 111 % of control and 118 % of control under setting [7]; 104 % of control and 116 % of control and 118 % of control under setting [8]; 112 % of control under setting [9].
Turning to `Cc1cc(O)c2c(c1O)C(=O)C13C(=C2O)C(=O)C2C(O)C1C1C(O)C3C(=O)C3=C(O)c4c(O)cc(C)c(O)c4C(=O)C321` (stereo not drawn), the T/C is, setting by setting: (dose: 0.75 mg/kg/injection, schedule: Q01DX005 (ip), vehicle: saline with Tween-80) 100 % of control and 106 % of control; (dose: 0.78 mg/kg/injection, schedule: Q01DX009 (ip), vehicle: saline with Tween-80) 116 % of control; (dose: 1.5 mg/kg/injection, schedule: Q01DX005 (ip), vehicle: saline with Tween-80) 111 % of control and 115 % of control; (dose: 3.0 mg/kg/injection, schedule: Q01DX005 (ip), vehicle: saline with Tween-80) 115 % of control.
For `Cc1cc(C)c(N=Cc2cccs2)c(C)c1`, the T/C is 107 % of control under setting [4]; 111 % of control under setting [5]; 101 % of control and 106 % of control under setting [6]; 92 % of control (dose: 200.0 mg/kg/injection, schedule: Q01DX009 (ip), vehicle: saline).
As to `COc1ccc2n[se]nc2c1`, the T/C under setting [10] is 93 % of control and the T/C under setting [11] was 93 % of control.
As for `Cc1ccc(C2(C(=O)O)CC2)cc1`, the T/C is 100 % of control under setting [1], 100 % of control under setting [2] and 90 % of control under setting [3].
Take `COc1ccccc1C1OC2=Nc3cc(C)c(C)cc3NC2C1=O` (stereo not drawn): the T/C is 96 % of control (dose: 30.0 mg/kg/injection, schedule: Q01DX005 (ip), vehicle: Klucel (hydroxypropylcellulose) (HPC)); 93 % of control (dose: 60.0 mg/kg/injection, schedule: Q01DX005 (ip), vehicle: Klucel (hydroxypropylcellulose) (HPC)); 90 % of control (dose: 120.0 mg/kg/injection, schedule: Q01DX005 (ip), vehicle: Klucel (hydroxypropylcellulose) (HPC)); 95 % of control (dose: 240.0 mg/kg/injection, schedule: Q01DX005 (ip), vehicle: Klucel (hydroxypropylcellulose) (HPC)).
For the compound `CCOC(=O)C(C)(C)c1nc[nH]c1[N+](=O)[O-]`, the T/C was 100 % of control (dose: 12.5 mg/kg/injection, schedule: Q04DX003 (ip), vehicle: saline with Tween-80); 104 % of control (dose: 25.0 mg/kg/injection, schedule: Q04DX003 (ip), vehicle: saline with Tween-80); 100 % of control (dose: 50.0 mg/kg/injection, schedule: Q04DX003 (ip), vehicle: saline with Tween-80); 98 % of control (dose: 200.0 mg/kg/injection, schedule: Q04DX003 (ip), vehicle: saline with Tween-80); 101 % of control (dose: 400.0 mg/kg/injection, schedule: Q04DX003 (ip), vehicle: saline with Tween-80).
Consider `O=C1OC(c2ccccc2Br)=N/C1=C/c1ccccc1`, for which the T/C runs as follows: (dose: 50.0 mg/kg/injection, schedule: Q01DX005 (ip), vehicle: Klucel (hydroxypropylcellulose) (HPC)) 99 % of control; (dose: 100.0 mg/kg/injection, schedule: Q01DX005 (ip), vehicle: Klucel (hydroxypropylcellulose) (HPC)) 91 % of control; (dose: 200.0 mg/kg/injection, schedule: Q01DX005 (ip), vehicle: Klucel (hydroxypropylcellulose) (HPC)) 98 % of control.
Take `CC1=CC(=O)C(c2ccc(O)cc2O)=CC1=O`: the T/C (dose: 2.5 mg/kg/injection, schedule: Q01DX009 (ip), vehicle: saline with Tween-80) is 100 % of control; the T/C (dose: 5.0 mg/kg/injection, schedule: Q01DX009 (ip), vehicle: saline with Tween-80) was 95 % of control; the T/C (dose: 10.0 mg/kg/injection, schedule: Q01DX009 (ip), vehicle: saline with Tween-80) was 86 % of control.
For `Cc1ccc(C2OC2(C(=O)C=[N+]=[N-])c2ccccc2)cc1` (stereo not drawn), the T/C is, setting by setting: (dose: 25.0 mg/kg/injection, schedule: Q01DX005 (ip), vehicle: saline with Tween-80) 89 % of control; under setting [7], 92 % of control; under setting [8], 86 % of control; under setting [9], 91 % of control.
Turning to `CN1NC(c2ccccc2)=C(C#N)C(=O)CC1c1ccccc1` (stereo not drawn), the T/C by setting is: under setting [10], 96 % of control; under setting [11], 95 % of control; under setting [12], 104 % of control.
For the compound `CCN(CC)CCNc1ncnc2[nH]ncc12`, the T/C is, setting by setting: (dose: 50.0 mg/kg/injection, schedule: Q01DX005 (ip), vehicle: saline) 106 % of control; (dose: 100.0 mg/kg/injection, schedule: Q01DX005 (ip), vehicle: saline) 101 % of control.
In the case of `COc1ccc(S(=O)(=O)c2coc3ccc(C)cc3c2=O)cc1`, the T/C runs as follows: under setting [10], 100 % of control; under setting [11], 96 % of control; under setting [12], 95 % of control.
As for `CNC(=S)c1cccc(-c2ccccn2)n1`, the T/C reads like this: (dose: 12.5 mg/kg/injection, schedule: Q04DX003 (ip), vehicle: Klucel (hydroxypropylcellulose) (HPC)) 104 % of control; (dose: 25.0 mg/kg/injection, schedule: Q04DX003 (ip), vehicle: Klucel (hydroxypropylcellulose) (HPC)) 113 % of control; (dose: 50.0 mg/kg/injection, schedule: Q04DX003 (ip), vehicle: Klucel (hydroxypropylcellulose) (HPC)) 108 % of control and 91 % of control.
On to `Nc1ccc2nc[nH]c(=O)c2c1`, for which the T/C by setting is: (dose: 3.0 mg/kg/injection, schedule: Q01DX005 (ip), vehicle: Klucel (hydroxypropylcellulose) (HPC)) 96 % of control; (dose: 6.25 mg/kg/injection, schedule: Q01DX005 (ip), vehicle: Klucel (hydroxypropylcellulose) (HPC)) 95 % of control; (dose: 12.0 mg/kg/injection, schedule: Q01DX005 (ip), vehicle: Klucel (hydroxypropylcellulose) (HPC)) 101 % of control; (dose: 12.5 mg/kg/injection, schedule: Q01DX005 (ip), vehicle: Klucel (hydroxypropylcellulose) (HPC)) 100 % of control; (dose: 25.0 mg/kg/injection, schedule: Q01DX005 (ip), vehicle: Klucel (hydroxypropylcellulose) (HPC)) 111 % of control.
